Assay results: patent publication US20080076750A1, “Azetidinone Derivatives and Methods of Use Thereof” (priority 2006, published 2008)
Read-outs that look alike come from different tables or passages of the source.

Columns and labels:
NPC1L1 = NPC1L1 (Rattus norvegicus, UniProt Q6T3U3); experiment: NPC1L1 Binding Assay, rat; conditions: competition with BODIPY-labeled glucuronidated ezetimibe
human NPC1L1 = molecular target: T1, human NPC1L1 (Homo sapiens, UniProt Q9UHC9); experiment: NPC1L1 Binding Assay, human; conditions: HEK-293 cells expressing human NPC1L1; competition with 250 nM BODIPY-labeled glucuronidated ezetimibe, 4 h at 37° C.
T1 construct: expressed in transfected cells; host or cells: HEK-293 (geneticin selection)
T1 sequence (Q9UHC9 22-1359): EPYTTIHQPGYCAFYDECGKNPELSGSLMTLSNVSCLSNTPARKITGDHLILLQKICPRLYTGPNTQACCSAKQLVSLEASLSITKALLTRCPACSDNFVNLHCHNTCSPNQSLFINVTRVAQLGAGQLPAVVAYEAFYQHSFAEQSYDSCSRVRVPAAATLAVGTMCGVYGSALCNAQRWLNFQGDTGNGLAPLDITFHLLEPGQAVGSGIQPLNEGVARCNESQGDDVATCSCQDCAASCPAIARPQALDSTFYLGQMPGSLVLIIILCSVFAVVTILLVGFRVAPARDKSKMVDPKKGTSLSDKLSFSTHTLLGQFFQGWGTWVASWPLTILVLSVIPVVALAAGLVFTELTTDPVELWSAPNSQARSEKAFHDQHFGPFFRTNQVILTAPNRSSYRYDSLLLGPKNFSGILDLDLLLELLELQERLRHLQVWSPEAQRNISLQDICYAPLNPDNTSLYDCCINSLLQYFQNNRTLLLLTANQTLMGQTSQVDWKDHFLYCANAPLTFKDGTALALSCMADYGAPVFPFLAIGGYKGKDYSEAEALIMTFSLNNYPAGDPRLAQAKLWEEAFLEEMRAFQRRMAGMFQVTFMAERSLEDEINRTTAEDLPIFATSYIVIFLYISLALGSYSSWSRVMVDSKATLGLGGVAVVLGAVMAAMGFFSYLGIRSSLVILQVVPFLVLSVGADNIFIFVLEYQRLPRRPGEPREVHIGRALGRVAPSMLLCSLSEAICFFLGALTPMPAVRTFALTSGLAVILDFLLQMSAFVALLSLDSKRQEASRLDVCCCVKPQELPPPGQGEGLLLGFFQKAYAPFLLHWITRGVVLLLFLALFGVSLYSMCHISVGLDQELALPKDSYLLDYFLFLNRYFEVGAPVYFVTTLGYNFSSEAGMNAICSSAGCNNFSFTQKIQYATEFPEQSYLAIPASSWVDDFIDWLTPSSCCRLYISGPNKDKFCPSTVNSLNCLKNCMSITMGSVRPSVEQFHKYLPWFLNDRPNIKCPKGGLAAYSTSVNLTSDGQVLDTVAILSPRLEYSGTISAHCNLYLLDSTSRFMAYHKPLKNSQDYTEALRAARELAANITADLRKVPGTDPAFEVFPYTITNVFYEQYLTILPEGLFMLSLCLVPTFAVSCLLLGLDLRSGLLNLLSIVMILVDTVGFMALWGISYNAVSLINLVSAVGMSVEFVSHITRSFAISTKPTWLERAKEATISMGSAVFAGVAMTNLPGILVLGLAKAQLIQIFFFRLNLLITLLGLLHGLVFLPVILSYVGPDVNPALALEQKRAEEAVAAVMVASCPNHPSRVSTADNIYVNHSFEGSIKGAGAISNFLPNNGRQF
Description: HEK-293 cells expressing human NPC1L1 were plated into 384-well black/clear plates (BD Biosciences, Bedford Mass.) for binding experiments the following day. Cell growth media (DMEM, 10% fetal calf serum, 1 mg/mL geneticin, 100 Units/mL penicillin) was aspirated. Cell growth media ([…]) containing 250 nM BODIPY-labeled glucuronidated ezetimibe was added to each well. Cell growth media ([…] containing the indicated concentration of compound was then added to the wells unlabeled glucuronidated ezetimibe […]) was used to determine nonspecific binding. The binding reaction was allowed to proceed for 4 h at 37° C. Subsequently the cell growth media was aspired and the cells washed once with PBS. The remaining fluorescent labeled glucuronidated ezetimibe bound to the cells was quantified using a FlexStation plate reader (Molecular Devices, Sunnyvale Calif.) to measure fluorescence intensity. Ki values were determined from competition binding curves (n=4 for each point) using Prism and Activity Base software.

TRPV1 [1] = molecular target: T2, TRPV1 (Homo sapiens, UniProt Q8NER1); experiment: TRPV1 Screening Assay (FLIPR); format: cell-based; conditions: HEK293-TetOFF-TRPV1, PMA, read-out: VR1 flipr PMA IC50
T2 construct: expressed in transfected cells; host or cells: HEK293-Tet-OFF
T2 sequence (Q8NER1 whole entry, species assumed): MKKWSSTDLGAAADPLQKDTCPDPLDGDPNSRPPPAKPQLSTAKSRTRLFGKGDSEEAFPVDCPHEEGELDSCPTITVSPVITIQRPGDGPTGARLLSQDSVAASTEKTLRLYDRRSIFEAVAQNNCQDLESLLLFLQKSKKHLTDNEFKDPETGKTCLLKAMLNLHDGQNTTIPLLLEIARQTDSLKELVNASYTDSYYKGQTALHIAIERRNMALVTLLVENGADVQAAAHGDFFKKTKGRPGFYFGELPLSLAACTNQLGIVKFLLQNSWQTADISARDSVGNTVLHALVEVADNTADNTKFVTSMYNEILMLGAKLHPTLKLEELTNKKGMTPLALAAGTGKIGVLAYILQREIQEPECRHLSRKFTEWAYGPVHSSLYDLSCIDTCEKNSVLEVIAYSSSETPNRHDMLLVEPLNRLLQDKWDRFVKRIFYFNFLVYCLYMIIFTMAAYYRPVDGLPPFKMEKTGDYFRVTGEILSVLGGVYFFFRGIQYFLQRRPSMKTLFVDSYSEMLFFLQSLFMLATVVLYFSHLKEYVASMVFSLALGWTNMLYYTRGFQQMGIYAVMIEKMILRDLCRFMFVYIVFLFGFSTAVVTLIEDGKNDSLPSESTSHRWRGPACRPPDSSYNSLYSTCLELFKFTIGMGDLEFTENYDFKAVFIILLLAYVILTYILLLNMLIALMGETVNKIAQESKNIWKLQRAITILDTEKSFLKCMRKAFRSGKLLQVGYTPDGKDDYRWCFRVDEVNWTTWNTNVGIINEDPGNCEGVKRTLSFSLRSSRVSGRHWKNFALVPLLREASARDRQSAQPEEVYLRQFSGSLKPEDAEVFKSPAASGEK

TRPV1 [2] = molecular target: T2, TRPV1; experiment: TRPV1 Screening Assay (FLIPR); format: cell-based; conditions: HEK293-TetOFF-TRPV1, capsaicin (50 nM final), read-out: VR1 flipr CAPSAICIN IC50
Source text: • 1) Cell line: HEK293-Tet^OFF-TRPV1 • 2) Media: MEM (Invitrogen) • 3) 10% Tet-FBS (Clontech #8630-1) • 4) Fungizone (Gibco #15290-018 (100×)) • 5) Penn/Strep (Gibco #15140-122 (100×)) • 6) Geneticin (Gibco #10131-027 (100×)) • 7) Hygromycin (Clontech #8057-1) • 8) Doxycycline (Clontech #8634-1) • 9) Trypsin/EDTA (Gibco #25200-056) • 10) 100 mm cell culture plates (Falcon #3003) • 11) 96-well poly-D-lysine plates (Fisher #08-774-256) • 12) Hank's Balanced Salt Solution (HBSS) (GIBCO #14025-092) • 13) HEPES Buffer (GIBCO #15630-080) • 14) 30% BSA (Research Organics #1334A) • 15) Probenecid (Sigma P-8761) • 16) Fluo-4, AM (50 μg) (Molecular robes F-23917) • 17) Pluronic F-127 20% (Molecular Probes P-3000). • 18) capsazepine (Sigma C-191) • 19) capsaicin (Sigma M-2028) • 20) compound plates (NUNC #442587) • 21) black pipet tips 96-well FLIPR (Robbins Scientific 1043-24-0) • 22) Additional reagents available from Fisher: methanol, DMSO, NaOH Reagent Preparation: 1) Cells: HEK293-Tet^OFF-TRPV11
• and Doxycycline 2.5 μg/mL final (from a 1000× stock in PBS) • Cells must be fed and/or split every 2-3 days (to maintain transcriptional repression with Doxycycline). • Must be split no more than 1:5 (50-75% confluency) to maintain growth and viability. • Grown on regular tissue culture plates (e.g. Falcon 3003-100 mm) • SpliT-cells via Trypsin/EDTA: incubate with trypsin at room temperature no longer than 5 min (HEK293 cells have a tendency to ball up if over trypsinized). • Two days prior to assay, the cells are split into 96-well plates in cell media in the absence of doxycycline at a concentration of 40,000 cells/well in a volume of 200 μL, 2) FLIPR buffer is prepared fresh:
Add 5 mL of Probenecid Solution, prepared as follows: 710 mg of probenecid (Sigma P-8761) is solubilized in 5 mL of 1 N NaOH, 5 mL of above buffer s added for final volume of 10 mL (of which 5 mL goes back into FLIPR buffer)
Combine 42 μL of dye mixture with 11 mL of FLIPR buffer/96-well plate.
Stock solution of 0.1 M capsaicin is prepared in MeOH (50 mg+1.6 mL MeOH). Store 50 μL aliquots at −80° C.
For assay: • a) Dilute stock by adding 0.8 μL into 1 mL of MeOH (final=80 μM). • b) Add 50 μL of diluted stock to 20 mL of FLIPR buffer (final=0.2 μM) • c) Agonist solution is added 150 μL/well to 96-well plate. • d) Final agonist concentration on cells will be 50 nM. […] Laser is adjusted upwards for an average signal≧10,000/well and less than 10% variability. 7) Compound addition conditions are as follows: • FLIPR setup (dual sequence parameters): • Sequence 1: • First interval 1 sec/60 counts • Second interval 6 sec/50 counts • Fluid addition=50 μL • Pipettor=110 μL • Dispense Speed=30 μL/sec • Sequence 2: • Second interval 1 sec/60 counts • Second interval 6 sec/40 counts • Fluid addition=50 μL • Pipettor height=140 μL • Dispense Speed=50 μL/sec Data Analysis:
1) Data from both additions is reported as Max-Min for each well

| SMILES | Ki (NPC1L1) [nM] | Ki (human NPC1L1) [nM] | IC50 (TRPV1 [1]) [nM] | IC50 (TRPV1 [2]) [nM] |
| --- | --- | --- | --- | --- |
| Cc1ccc(C)c(NC(=O)N2CCC3(CC2)C(=O)N(c2ccccc2)C3c2ccccc2)c1 (stereo not shown) | 3500 | 3900 | – | – |
| O=C(Nc1ccc(C(F)(F)F)cc1)N1CCC2(CC1)C(=O)N(c1cncnc1)C2c1ccccc1 (stereo not shown) | – | – | 210 | 184 |
| O=C(Nc1c(F)cccc1F)N1CCC2(CC1)C(=O)N(c1ccccc1)C2c1ccccc1 (stereo not shown) | 6630 | 9870 | – | – |
| CC(C)c1ccc(NC(=O)N2CCC3(CC2)C(=O)N(c2cncnc2)C3c2ccccn2)cc1 (stereo not shown) | – | – | 252 | 301 |
| O=C(Nc1ccc(Oc2ccccc2)cc1)N1CCC2(CC1)C(=O)N(c1ccccc1)C2c1ccccn1 (stereo not shown) | – | – | 140 | 259 |
| CC(C)c1ccc(NC(=O)N2CCC3(CC2)C(=O)N(c2cncnc2)C3c2ccccc2)cc1 (stereo not shown) | – | – | 155 | 240 |
| O=C(Nc1cccc2ccccc12)N1CCC2(CC1)C(=O)N(c1ccccc1)C2c1ccccn1 (stereo not shown) | – | – | 233 | 201 |

The next lines start with the values.

| Ki (NPC1L1) [nM] | Ki (human NPC1L1) [nM] | IC50 (TRPV1 [1]) [nM] | IC50 (TRPV1 [2]) [nM] | SMILES |
| --- | --- | --- | --- | --- |
| 4950 | 6620 | – | – | O=C(Nc1cccc(Cl)c1Cl)N1CCC2(CC1)C(=O)N(c1ccccc1)C2c1ccccc1 (stereo not shown) |
| 1060 | 1010 | – | – | Cc1cccc(Cl)c1NC(=O)N1CCC2(CC1)C(=O)N(c1ccccc1)C2c1ccccc1 (stereo not shown) [drawing 443] |
| 3620 | 3770 | – | – | Cc1c(Cl)cccc1NC(=O)N1CCC2(CC1)C(=O)N(c1ccccc1)C2c1ccccc1 (stereo not shown) [drawing 435] |
| 1170 | 2320 | – | – | Cc1cccc(Cl)c1NC(=O)N1CCC2(CC1)C(=O)N(c1ccccc1)C2c1ccccc1 (stereo not shown) [drawing 434] |
